Experiments:
EGFR = conditions: breast cancer cells; behave similarly to estradiol; cited from earlier work
alpha and beta ERs = conditions: cited from earlier work
GPR30 = target: T1, GPR30 (Homo sapiens, UniProt Q99527); experiment: Estrogen-mediated fibronectin (FN) matrix assembly by human breast cancer cells; type: cell-based; conditions: stimulation of human breast cancer cells
T1 construct: human SKBR3 breast cancer cells (Erα^−, ERβ^−, GPR30^+); endogenous in cells

ER+ ovarian cancer = conditions: ovarian cancer patients, second-line therapy, Phase II; cited from earlier work

T1 sequence (Q99527 whole entry): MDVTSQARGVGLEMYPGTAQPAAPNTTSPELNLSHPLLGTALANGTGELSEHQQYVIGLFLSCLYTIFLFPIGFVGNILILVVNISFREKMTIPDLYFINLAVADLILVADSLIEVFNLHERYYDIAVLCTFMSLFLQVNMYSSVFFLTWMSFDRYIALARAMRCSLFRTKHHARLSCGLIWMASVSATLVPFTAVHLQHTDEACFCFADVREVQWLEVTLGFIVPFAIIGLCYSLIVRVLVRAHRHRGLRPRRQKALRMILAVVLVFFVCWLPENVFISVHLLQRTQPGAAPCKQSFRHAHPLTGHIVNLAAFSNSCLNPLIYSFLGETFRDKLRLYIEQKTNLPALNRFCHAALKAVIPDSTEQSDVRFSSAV

Structure (SMILES) | EGFR activation (EGFR) | Binding preference ERα versus ERβ (alpha and beta ERs) | also measured
CC/C(=C(\c1ccccc1)c1ccc(OCCN(C)C)cc1)c1ccccc1 [tamoxifen] | capable of triggering EGFR activation in breast cancer cells |  | 
C[C@]12CC[C@@H]3c4ccc(O)cc4CC[C@H]3[C@@H]1CC[C@@H]2O [17β-estradiol] |  | binds equally well to both receptors | 
O=C(c1ccc(OCCN2CCCCC2)cc1)c1c(-c2ccc(O)cc2)sc2cc(O)ccc12 [raloxifene] |  | bind preferentially to the alpha receptor | 
C[C@]12CC[C@@H]3c4ccc(O)cc4C[C@@H](CCCCCCCCC[S+]([O-])CCCC(F)(F)C(F)(F)F)[C@H]3[C@@H]1CC[C@@H]2O (stereo partly drawn) [ICI 182,780] | capable of triggering EGFR activation in breast cancer cells |  | FN matrix assembly: recruitment of FN-engaged integrin α5β1 conformers to fibrillar adhesions and synthesis of FN fibrils (GPR30): resulted in the recruitment of FN-engaged integrin α5β1 conformers to fibrillar adhesions and the synthesis of FN fibrils
N#Cc1ccc(C(c2ccc(C#N)cc2)n2cncn2)cc1 [Letrozole] |  |  | Clinical response measured by ovarian cancer serum marker CA-125 (ER+ ovarian cancer): stable disease

— patent US20100190199A1, “GPR30 ESTROGEN RECEPTOR IN BREAST AND OVARIAN CANCERS” (Rhode Island Hospital, priority 2008, published 2010)
